According to article PMC8053501 (Diabetes, Metabolic Syndrome and Obesity: Targets and …, 2021):
Where two headings read alike, the source gives them in different places.

Assays:
[1] = system: diabetes mellitus patients; assay: Acute kidney injury; assay type: in vivo, human; details: for Association with AKI, Unadjusted (95% CI) / Association with AKI, Adjusted (95% CI): metformin as reference; for Association with AKI, Adjusted (95% CI): multivariate; for Events During the 90 days (AKI): primary endpoint, first 90 days, patients above 55 years; for Total endpoint (AKI events): primary plus secondary endpoint; for Events at secondary end (AKI): secondary endpoint, after 90 days of hospital admission; for Total Percent (incidence rate of AKI at the end of the study): share of the 4966 total outcomes
[2] = normal mice, oral gavage, 3mg/kg
in vivo = details: male, ICR, mouse, po; for Cmax / half-life: oral gavage; for half-life: t1/2, mouse
[3] = Endpoint Diagnosis with 1047 Outcome
[4] = Secondary Diagnosis with 3919 Outcomes

CC#CCn1c(N2CCC[C@@H](N)C2)nc2c1c(=O)n(Cc1nc(C)c3ccccc3n1)c(=O)n2C [Linagliptin, linagliptin]
Association with AKI, Unadjusted (95% CI) [1, 3]: 0.97 (0.68–1.32)
Association with AKI, Adjusted (95% CI) [1, 3]: 0.86 (0.72–1.46)
Association with AKI, Unadjusted (95% CI) [1, 4]: 0.87 (0.72–1.21)
Association with AKI, Adjusted (95% CI) [1, 4]: 1.23 (0.73–1.65)
Events During the 90 days (AKI) [1]: 56
Total endpoint (AKI events) [1]: 284
Events at secondary end (AKI) [1]: 228
Total Percent (incidence rate of AKI at the end of the study) [1]: 5.72%
Drug concentration, time course ([2]; Kidney, 0h): 0
Drug concentration, time course ([2]; Kidney, 3h): 18,500
Drug concentration, time course ([2]; Kidney, 6h): 12,800
Drug concentration, time course ([2]; Kidney, 9h): 9500
Drug concentration, time course ([2]; Kidney, 12h): 5400
Drug concentration, time course ([2]; Kidney, 15h): 2500
Drug concentration, time course ([2]; Kidney, 18h): 500
Drug concentration, time course ([2]; Kidney, 21h): 0
Drug concentration, time course ([2]; Kidney, 24h): 0
Drug concentration, time course ([2]; Liver, 0h): 0
Drug concentration, time course ([2]; Liver, 3h): 7500
Drug concentration, time course ([2]; Liver, 6h): 6000
Drug concentration, time course ([2]; Liver, 9h): 1200
Drug concentration, time course ([2]; Liver, 12h): 300
Drug concentration, time course ([2]; Liver, 15h): 50
Drug concentration, time course ([2]; Liver, 18h): 0
Drug concentration, time course ([2]; Liver, 21h): 0
Drug concentration, time course ([2]; Liver, 24h): 0
Drug concentration, time course ([2]; Plasma, 0h): 0
Drug concentration, time course ([2]; Plasma, 3h): 450
Drug concentration, time course ([2]; Plasma, 6h): 310
Drug concentration, time course ([2]; Plasma, 9h): 50
Drug concentration, time course ([2]; Plasma, 12h): 0
Drug concentration, time course ([2]; Plasma, 15h): 0
Drug concentration, time course ([2]; Plasma, 18h): 0
Drug concentration, time course ([2]; Plasma, 21h): 0
Drug concentration, time course ([2]; Plasma, 24h): 0
Tmax (in vivo): 1 h
Tmax (in vivo; 3 mg/kg): 1 h
Cmax (in vivo; 3 mg/kg, Kidney): 6440 ng/mL
Cmax (in vivo; 3 mg/kg, Liver): 5050 ng/mL
Cmax (in vivo; 3 mg/kg, Plasma): 578 ng/mL
half-life (in vivo; 3 mg/kg, Kidney): 3.7 h
half-life (in vivo; 3 mg/kg, Liver): 2.8 h
half-life (in vivo; 3 mg/kg, Plasma): 2.6 h

OC[C@H]1O[C@@H](c2ccc(F)c(Cc3cc4ccccc4s3)c2)[C@H](O)[C@@H](O)[C@@H]1O [Ipragliflozin, ipragliflozin]
Association with AKI, Unadjusted (95% CI) [1, 3]: 0.78 (0.61–1.08)
Association with AKI, Adjusted (95% CI) [1, 3]: 0.86 (0.69–1.31)
Association with AKI, Unadjusted (95% CI) [1, 4]: 0.84 (0.69–1.16)
Association with AKI, Adjusted (95% CI) [1, 4]: 0.95 (0.62–1.45)
Events During the 90 days (AKI) [1]: 58
Total endpoint (AKI events) [1]: 269
Events at secondary end (AKI) [1]: 211
Total Percent (incidence rate of AKI at the end of the study) [1]: 5.42%
Drug concentration, time course ([2]; Kidney, 0h): 0
Drug concentration, time course ([2]; Kidney, 3h): 16,700
Drug concentration, time course ([2]; Kidney, 6h): 14,500
Drug concentration, time course ([2]; Kidney, 9h): 8000
Drug concentration, time course ([2]; Kidney, 12h): 4500
Drug concentration, time course ([2]; Kidney, 15h): 3000
Drug concentration, time course ([2]; Kidney, 18h): 1500
Drug concentration, time course ([2]; Kidney, 21h): 1000
Drug concentration, time course ([2]; Kidney, 24h): 850
Drug concentration, time course ([2]; Liver, 0h): 0
Drug concentration, time course ([2]; Liver, 3h): 7500
Drug concentration, time course ([2]; Liver, 6h): 6000
Drug concentration, time course ([2]; Liver, 9h): 1200
Drug concentration, time course ([2]; Liver, 12h): 300
Drug concentration, time course ([2]; Liver, 15h): 50
Drug concentration, time course ([2]; Liver, 18h): 0
Drug concentration, time course ([2]; Liver, 21h): 0
Drug concentration, time course ([2]; Liver, 24h): 0
Drug concentration, time course ([2]; Plasma, 0h): 0
Drug concentration, time course ([2]; Plasma, 3h): 300
Drug concentration, time course ([2]; Plasma, 6h): 250
Drug concentration, time course ([2]; Plasma, 9h): 30
Drug concentration, time course ([2]; Plasma, 12h): 0
Drug concentration, time course ([2]; Plasma, 15h): 0
Drug concentration, time course ([2]; Plasma, 18h): 0
Drug concentration, time course ([2]; Plasma, 21h): 0
Drug concentration, time course ([2]; Plasma, 24h): 0
Tmax (in vivo): 0.5 h
Tmax (in vivo; 3 mg/kg): 0.5 h
Cmax (in vivo; 3 mg/kg, Kidney): 4140 ng/mL
Cmax (in vivo; 3 mg/kg, Liver): 3040 ng/mL
Cmax (in vivo; 3 mg/kg, Plasma): 975 ng/mL
half-life (in vivo; 3 mg/kg, Kidney): 2.3 h
half-life (in vivo; 3 mg/kg, Liver): 1.5 h
half-life (in vivo; 3 mg/kg, Plasma): 1.6 h
